Tested on: sugarcane, variety RB 81-5156 (plant-cane)
Experiment: Evaluation of carfentrazone-ethyl as a sugarcane ripener (field trial, stems harvested 0-45 DAA; % POL, % BRIX, % PURITY)
Type: in vivo
Settings: 250 g ai/ha, average of four replications
Procedure: The following example further illustrates the present invention, but, of course, should not be construed as in any way limiting its scope. The example includes a protocol for the evaluation of certain PPO-inhibiting compounds as ripeners on sugarcane crops, and sets forth certain data indicating the effectiveness of such compounds. Yield is measured in % POL, which is the percent saccharose content in the pressed broth or the cane. Purity and % BRIX (defined as total sugar content including glucose, fructose, saccharose and minerals) are also measures of crop yield, although the saccharose content is of primary concern.
The trial was performed on sugarcane, variety RB 81-5156 (plant-cane). The sugarcane was planted with spacing of 1.40 m between rows, using 30 kg/ha of N; 100 kg/ha of P2O5 and 80 gk/ha of K2O as basic fertilizers, complemented by a covering application of 30 kg/ha of N.
The application of ripeners was performed with pressurized back-pack sprayers, with flat fan nozzle 110.01. The flow was 65 l/ha and the pressure was 35 lb/in^2.
The experimental design used randomized plots with 6 treatments and 4 replications. The size of each experimental plot was 126 m^2 (6 spacing lines of 1.40 m per 15 m of length).
The climatic conditions at the time of the ripener applications were: average temperature of 27° C.; air relative humidity of 73%, wind speed of 4 km/hour.
One linear meter of stems was harvested in each experimental plot at 0 (zero), 15, 30 and 45 days after application (DAA) of the ripener. The sugar was extracted from these stems and submitted for GC and refractometer analysis of percent saccharose, glucose, fructose and minerals corresponding to % POL, % BRIX and % PURITY.
The results, shown as an average of four replications, were compared with results observed in the same trials with trinexapac-ethyl (Moddus).

CCOC(=O)C1CC(=O)C(=C(O)C2CC2)C(=O)C1 (stereo not shown) [trinexapac-ethyl, reference compound]
% BRIX in Pressed Broth of Sugarcane Crop after Application of Ripeners (0 DAA): 14.93%
% POL in Pressed Broth of Sugarcane Crop after Application of Ripeners (0 DAA): 12.75%
% POL in the Cane of Sugarcane Crop after Application of Ripeners (0 DAA): 11.35%
% PURITY in Pressed Broth of Sugarcane Crop after Application of Ripeners (0 DAA): 81.53%
% BRIX in Pressed Broth of Sugarcane Crop after Application of Ripeners (15 DAA): 15.15%
% POL in Pressed Broth of Sugarcane Crop after Application of Ripeners (15 DAA): 14.25%
% POL in the Cane of Sugarcane Crop after Application of Ripeners (15 DAA): 12.53%
% PURITY in Pressed Broth of Sugarcane Crop after Application of Ripeners (15 DAA): 83.73%
% BRIX in Pressed Broth of Sugarcane Crop after Application of Ripeners (30 DAA): 17.85%
% POL in Pressed Broth of Sugarcane Crop after Application of Ripeners (30 DAA): 15.80%
% POL in the Cane of Sugarcane Crop after Application of Ripeners (30 DAA): 13.45%
% PURITY in Pressed Broth of Sugarcane Crop after Application of Ripeners (30 DAA): 85.15%
% BRIX in Pressed Broth of Sugarcane Crop after Application of Ripeners (45 DAA): 18.45%
% POL in Pressed Broth of Sugarcane Crop after Application of Ripeners (45 DAA): 15.75%
% POL in the Cane of Sugarcane Crop after Application of Ripeners (45 DAA): 14.20%
% PURITY in Pressed Broth of Sugarcane Crop after Application of Ripeners (45 DAA): 84.78%

— US8883681B2, “Sugarcane harvest aid” (FMC Corporation, priority 2004, dated 2014)
